Measured values: patent US12076394B2, “Cytosolic delivery of peptides using protein transduction domain mimics” (University of Massachusetts, priority 2020, dated 2024)
Where two headings read alike, the source gives them in different places. Where no end group is shown, it is not given here. FAM = Fluorescein Amidites label

Columns and labels:
whole blood [1] = assay: Inflammatory cytokine panel (cytometric bead array) after co-delivery of SIINFEKL and CpG into whole blood; conditions: 24 hours after 60-minute treatment
Protocol: (§1) A multi-analyte inflammatory cytokine panel was used to understand the immune response when CpG was added to the complexes. GpC, a nonfunctional analogue of CpG, was included as a negative control to preclude the role of nonspecific TLR9 activation during incubation. At 24 hours, following the 60-minute treatment with the non-covalent polymer-[sequence]-CpG complexes, supernatants from whole blood were tested the inflammatory cytokines: IL-1β, IFN-α, IFN-γ, TNF-α, MCP-1, IL-6, IL-8, IL-10, IL-12p70, IL-17A, IL-18, IL-23, and IL-33.
(§2) Whole human blood was obtained from healthy volunteers under signed consent in Roche Vacutainers containing hirudin. In all cases, blood was used within 10 minutes of the tapping from the donor. The blood was distributed into Eppendorf tubes containing preassembled polymer preparations in RPMI 1640 with no supplements and incubated up to 1 hour at 37° C. on rotation (60 RPM). In general, 400 μL of blood was combined with 100 μL of polymer complex prepared in RPMI 1640 for a final volume of 500 μL.
(§3) After one hour of incubation with treatment as reported under cell preparation and culture, cells were pelleted at 400 g for 2 minutes and supernatant was removed. […] Cytokine production was detected using the human inflammation cytometric bead array Legendplex™ from BioLegend® (740118).

[2] = tested on: bone marrow derived dendritic cells; assay: Delivery into bone marrow derived dendritic cells, flow cytometry; assay type: cell-based, mouse; conditions: 1 μM antigen, free or with PTDM at 1:10, 4 hours
Protocol: To test SIINFEKL delivery and presentation for T cell activation, bone marrow derived dendritic cells were differentiated from B56 mouse bone marrow for 6 days in the presence of 20 ng/mL mouse GM-CSF. After 6 days, cells were harvested and treated with 1 μM fluorescently labeled SIINFEKL or OVA both free and in complex with PTDM molar ratio of 1:10 for 4 hours.
Immature dendritic cells were differentiated from murine bone marrow according to established protocols. (Dewitte, et al. J. Control. Release 2014, 195, 138-146.) RBCs were lysed using BioLegend® lysis buffer and cells were plated at a density of 2×10^5 cells/mL in complete RPMI (listed under cell lines) with the addition of 20 ng/mL recombinant mouse GM-CSF. Cells were cultured for 6 days with the addition of 10 mL fresh media and cytokines on day 3. Non-adherent and loosely adherent cells were harvested on day 6 and cells were pelleted, counted, and plated at a density of 2×10^6 cells/mL.
THP-1 monocytes, immature dendritic cells, and bone marrow derived dendritic cells were analyzed using a BD LSR Fortessa 20X flow cytometer with five lasers and 18 channels. […] Only cells negative for 7-AAD were assessed for either uptake or presentation of markers. Multi-color flow cytometric analysis spectral overlap was corrected by appropriate compensation and analyzed using FlowJo 10.2 (v3.05470) by Tree Star, Ashland, OR, USA.

whole blood [3] = tested on: whole blood
Protocol: as §1, §2, §3

whole blood [4] = assay: Delivery of FAM labeled SIINFEKL into whole blood (time and concentration survey), flow cytometry; assay type: cell-based, human; conditions: molar ratio 1:10; 15, 30, 45 or 60 minutes; free peptide 60 minutes
Protocol: The specificity of the polymer-antigen complex uptake by monocytes was tested in whole blood. FAM (Fluorescein Amidites) labeled SIIFNEKL was delivered into whole blood using Me-Ph10-b-dG5 at a molar ratio of 1:10, for 15, 30, 45, or 60 minutes to investigate the kinetics of uptake. MFI and uptake in monocytes were not statistically different regardless of the incubation time. Additionally, complex uptake was compared with free SIINFEKL-FAM allowed to incubate with whole blood for 60 minutes.
FAM labeled SIINFEKL was delivered into whole blood using Me-Ph10-b-dG5 at a molar ratio of 1:10 at increasing peptide concentrations (0.25, 0.5, 1, and 2 μM).
After incubation, cells were pelleted at 200 g for 5 minutes and the supernatant was removed. Red blood cells were lysed in using BD Pharm lysis buffer and subsequently washed with 1% FBS in PBS twice before staining with antibodies. Unspecific binding was blocked for 10 minutes using human or mouse IgG respectively. Antibody surface staining was performed using Human CD14-APC, CD4O-PE, CD80-AF488, CD86-BV711, CD209-APC, HLA-DR-APC-Cy7, or mouse CD11c-AF488, CD86-AF647, HLA-DR, H-2K^b-PE as indicated by manufacturer (BD® or BioLegend®). […]

CC[C@H](C)[C@H](NC(=O)[C@@H](NC(=O)[C@@H](N)CO)[C@@H](C)CC)C(=O)N[C@@H](CC(N)=O)C(=O)N[C@@H](Cc1ccccc1)C(=O)N[C@@H](CCC(=O)O)C(=O)N[C@@H](CCCCN)C(=O)N[C@@H](CC(C)C)C(=O)O [SIINFEKL]
inflammatory cytokine response, in words (whole blood [1]): no increase in inflammatory response

OVA: ovalbumin protein, fluorescently labeled, free antigen
uptake of fluorescently labeled SIINFEKL or OVA [2]: significantly less uptake

Me-Ph10-b-dG5 [PTDM]
inflammatory cytokine response, in words (whole blood [3]): did not induce the production of inflammatory cytokines

SIINFEKL-FAM: FAM (Fluorescein Amidites) labeled SIINFEKL, free peptide (SIINFEKL-{FAM})
uptake of FAM labeled SIINFEKL by leukocytes, time survey (whole blood [4]): not readily taken up
